Test results reported in ChEMBL document CHEMBL1137498, “Design, synthesis and biological evaluation of novel lipoamino acid-based glycolipids for oral drug delivery” (Bioorg Med Chem, 2007).
Converted amounts (≈) assume the structure as drawn.

Assays:
Klebsiella aerogenes = experiment: Antibacterial activity against Klebsiella aerogenes; type: functional
Bacillus subtilis = experiment: Antibacterial activity against Bacillus subtilis; type: functional
Pseudomonas aeruginosa = experiment: Antibacterial activity against Pseudomonas aeruginosa; type: functional
Escherichia coli = experiment: Antibacterial activity against Escherichia coli; type: functional
[1] = Apparent permeability across Caco-2 cells; type: ADME, cell-based; settings: human
Staphylococcus aureus = experiment: Antibacterial activity against Staphylococcus aureus; type: functional

## CCN1CCN(C(=O)N[C@@H](C(=O)N[C@@H]2C(=O)N3[C@@H]2SC(C)(C)[C@@H]3C(=O)O)c2ccccc2)C(=O)C1=O [PIPERACILLIN]
Klebsiella aerogenes
  MIC: 8 µg/mL (≈ 15.5 µM)
Bacillus subtilis
  MIC: 0.5 µg/mL (≈ 0.966 µM)
Pseudomonas aeruginosa
  MIC: 4 µg/mL (≈ 7.73 µM)
Escherichia coli
  MIC: 4 µg/mL (≈ 7.73 µM)
[1]
  Papp: 0.0325 ×10⁻⁶ cm/s
Staphylococcus aureus
  MIC: 1 µg/mL (≈ 1.93 µM)
